# How the values were obtained:
# Human SCD-1 = biological target: T1, Human SCD-1 (Homo sapiens, UniProt O00767); assay: Human SCD-1 enzymatic activity from microsomes of HepG2 cells (conversion of stearic acid into oleic acid); format: biochemical; conditions: 10 μM compound, microsomal fraction of HepG2 cells, relative to carrier 0.1% DMSO; for inhibition at 10 µM: read-out: HSCD-1 (HEPG2) % inh. (10 μM)
# T1 construct: adding 125 μg of microsomal fraction of HepG2 cells; host or cells: HepG2 human hepatocarcinoma cells (microsomal fraction)
# T1 sequence (O00767 1-359): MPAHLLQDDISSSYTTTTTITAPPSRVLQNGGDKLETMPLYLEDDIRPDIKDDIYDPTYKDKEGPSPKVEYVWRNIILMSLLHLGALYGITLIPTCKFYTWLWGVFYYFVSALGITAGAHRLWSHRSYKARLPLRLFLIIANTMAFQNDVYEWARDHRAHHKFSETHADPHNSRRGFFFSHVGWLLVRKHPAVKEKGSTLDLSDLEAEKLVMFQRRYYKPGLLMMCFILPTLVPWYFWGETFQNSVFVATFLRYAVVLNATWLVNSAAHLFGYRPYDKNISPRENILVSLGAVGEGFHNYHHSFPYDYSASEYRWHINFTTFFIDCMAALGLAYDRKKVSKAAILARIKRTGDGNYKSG
# Procedure: In vitro: Human SCD-1 enzymatic activity from microsomes of HepG2 cells after treatment with inhibitory compounds (inhibition %).
# Human hepatocarcinoma HepG2 cells (ATCC, HB-8065) are grown to confluence and then trypsinized. The cell pellet is taken up in 10 mM Tris buffer (pH 7.4), saccharose (250 mM) DTT (1 mM) and then the cells are lyzed by sonication. The microsomes are obtained after centrifugation at 10,000 g for 20 minutes a 4° C. followed by centrifugation of the supernatant at 100,000 g for 60 minutes a 4° C. The pellet is taken up in 10 mM Tris buffer (pH 7.4) saccharose (250 mM) at 4° C. and the microsomal proteins are assayed and stored at −196° C. (liquid nitrogen).
# The enzymatic reaction measures the conversion of stearic acid (a C18:0 fatty acid) into oleic acid (C18:1 fatty acid) by SCD-1. The enzymatic reaction is started by adding 125 μg of microsomal fraction of HepG2 cells to tubes (total reaction volume of 500 μl) containing 62 μM of stearic acid (45 μM of stearic acid and 17 μM of [^14C] stearic acid) in a phosphate buffer at 100 mM (pH 7.16) with 7.2 mM of ATP, 0.54 mM of CoA, 6 mM of MgCl2, 0.8 mM of NADH and the inhibitory compound or the carrier (0.1% DMSO). The tubes are incubated for 20 minutes at 37° C. and the enzymatic reaction is then stopped by adding KOH (12%) and saponification for 30 minutes at 80° C. After acidification (3N HCl), the fatty acids are extracted twice with ethyl ether, evaporated under nitrogen before being taken up with a methanol/dichloromethane (3:1) mixture. The product of the reaction (C18:1) is separated from the substrate of the reaction (C18:0) by HPLC (Perkin Elmer, C18 reverse phase column) coupled to a on-line radioactivity detector (FlowOne). Enzymatic activity is calculated in picomoles of stearic acid converted into oleic acid per minute and per mg of protein. For each inhibitory compound, an inhibition % is determined relatively to the reference enzymatic activity (carrier 0.1% DMSO). Sterculic acid is the reference inhibitory compound (Gomez F. E., Bauman D. E., Ntambi J. M., Fox B. G. Effects of sterculic acid on stearoyl-CoA desaturase in differentiating […] adipocytes. Biochem Biophys Res Commun. 300 316-326 (2003)).
SMILES,melting point [°C],inhibition at 10 µM (Human SCD-1) [%],HSCD-1 (HEPG2) % inh. (10 μM) (Human SCD-1) [%]
"Cn1nc(N2CCN(C(=O)c3ccccc3C(F)(F)F)CC2)c(=O)[nH]c1=O [Example 2, 2-methyl-6-[4-(2-trifluoromethyl-benzoyl)-piperazin-1-yl]-2H-[1,2,4]triazine-3,5-dione]",146,63,–
"Cn1c(=O)[nH]nc(N2CCN(C(=O)c3ccccc3C(F)(F)F)CC2)c1=O [Example 4, 4-methyl-6-[4-(2-trifluoromethyl-benzoyl)-piperazin-1-yl]-2H-[1,2,4]triazine-3,5-dione]",235,77,–
"Cn1nc(N2CCN(C(=O)c3ccccc3C(F)(F)F)CC2)c(=O)n(C)c1=O [Example 5, 2,4-dimethyl-6-[4-(2-trifluoromethyl-benzoyl)-piperazin-1-yl]-2H-[1,2,4]triazine-3,5-dione]",76,43,–
"O=C(c1ccccc1C(F)(F)F)N1CCN(c2c[nH]c(=O)[nH]c2=O)CC1 [Example 6, 5-[4-(2-trifluoromethyl-benzoyl)-piperazin-1-yl]-1H-pyrimidine-2,4-dione]",285,73,–
"Cn1nc(N2CCN(C(=O)c3cc(F)ccc3C(F)(F)F)CC2)c(=O)n(C)c1=O [Example 42, 6-[4-(5-fluoro-2-trifluoromethyl-benzoyl)-piperazin-1-yl]-2,4-dimethyl-2H-[1,2,4]triazine-3,5-dione]",87,80,–
"Cn1c(=O)c(N2CCN(C(=O)c3cc(F)ccc3C(F)(F)F)CC2)nn(CCCC(F)(F)F)c1=O [Example 47, 6-[4-(5-fluoro-2-trifluoromethyl-benzoyl)-piperazin-1-yl]-4-methyl-2-(4,4,4-trifluoro-butyl)-2H-[1,2,4]triazine-3,5-dione]",–,84,–
"CC(C)CCn1nc(N2CCN(C(=O)c3cc(F)ccc3C(F)(F)F)CC2)c(=O)n(C)c1=O [Example 48, 6-[4-(5-fluoro-2-trifluoromethyl-benzoyl)-piperazin-1-yl]-4-methyl-2-(3-methyl-butyl)-2H-[1,2,4]triazine-3,5-dione]",–,64,–
"Cn1c(=O)c(N2CCN(Cc3ccccc3C(F)(F)F)CC2)nn(CCCC(F)(F)F)c1=O [Example 57, 4-methyl-2-(4,4,4-trifluoro-butyl)-6-[4-(2-trifluoromethyl-benzyl)-piperazin-1-yl]-2H-[1,2,4]triazine-3,5-dione]",–,71,–
"Cn1c(=O)[nH]nc(N2CCN(Cc3ccccc3C(F)(F)F)CC2)c1=O [Example 64, 4-methyl-6-[4-(2-trifluoromethyl-benzyl)-piperazin-1-yl]-2H-[1,2,4]triazine-3,5-dione]",205,57,–
"Cn1c(=O)[nH]nc(N2CCN(C(=O)c3cc(F)ccc3C(F)(F)F)CC2)c1=O [Example 69, 6-[4-(5-fluoro-2-trifluoromethyl-benzoyl)-piperazin-1-yl]-4-methyl-2H-[1,2,4]triazine-3,5-dione]",–,84,–
"Cn1c(=O)[nH]nc(N2CCN(C(=O)c3ccc(F)cc3C(F)(F)F)CC2)c1=O [Example 70, 6-[4-(4-fluoro-2-trifluoromethyl-benzoyl)-piperazin-1-yl]-4-methyl-2H-[1,2,4]triazine-3,5-dione]",–,66,–
"Cn1c(=O)[nH]nc(N2CCN(Cc3ccc(F)cc3C(F)(F)F)CC2)c1=O [Example 71, 6-[4-(4-fluoro-2-trifluoromethyl-benzyl)-piperazin-1-yl]-4-methyl-2H-[1,2,4]triazine-3,5-dione]",–,50,–
"CCCCn1nc(N2CCN(C(=O)c3ccccc3C(F)(F)F)CC2)c(=O)n(C)c1=O [Example 74, 2-butyl-4-methyl-6-[4-(2-trifluoromethyl-benzoyl)-piperazin-1-yl]-2H-[1,2,4]triazine-3,5-dione]",–,60,–
"CCCCCCCCC1=C(CCCCCCCC(=O)O)C1 [Sterculic acid, reference compound]",–,–,100

# Next, values leading:
melting point [°C],inhibition at 10 µM (Human SCD-1) [%],HSCD-1 (HEPG2) % inh. (10 μM) (Human SCD-1) [%],SMILES
–,57,–,"Cn1c(=O)c(N2CCC(Oc3ccccc3C(F)(F)F)CC2)nn(CCCC(=O)c2cccs2)c1=O [Example 19, 4-methyl-2-(4-oxo-4-thiophen-2-yl-butyl)-6-[4-(2-trifluoromethyl-phenoxy)-piperidin-1-yl]-2H-[1,2,4]triazine-3,5-dione]"
–,73,–,"Cn1c(=O)c(N2CCC(Oc3ccccc3Cl)CC2)nn(CCC#N)c1=O [Example 23, 3-{6-[4-(2-chloro-phenoxy)-piperidin-1-yl]-4-methyl-3,5-dioxo-4,5-dihydro-3H-[1,2,4]triazin-2-yl}-propionitrile]"
–,70,–,"Cn1c(=O)c(N2CCC(Oc3ccccc3Cl)CC2)nn(CCCC(F)(F)F)c1=O [Example 25, 6-[4-(2-chloro-phenoxy)-piperidin-1-yl]-4-methyl-2-(4,4,4-trifluoro-butyl)-2H-[1,2,4]triazine-3,5-dione]"
–,82,–,"Cn1nc(N2CCC(Oc3ccccc3Cl)CC2)c(=O)n(C)c1=O [Example 27, 6-[4-(2-chloro-phenoxy)-piperidin-1-yl]-2,4-dimethyl-2H-[1,2,4]triazine-3,5-dione]"
–,50,–,"Cn1nc(N2CCC(Oc3ccccc3F)CC2)c(=O)n(C)c1=O [Example 28, 6-[4-(2-fluoro-phenoxy)-piperidin-1-yl]-2,4-dimethyl-2H-[1,2,4]triazine-3,5-dione]"
160,71,–,"Cn1nc(N2CCC(Oc3cc(C(F)(F)F)ccc3Cl)CC2)c(=O)n(C)c1=O [Example 29, 6-[4-(2-chloro-5-trifluoromethyl-phenoxy)-piperidin-1-yl]-2,4-dimethyl-2H-[1,2,4]triazine-3,5-dione]"
168,86,–,"Cn1nc(N2CCC(Oc3cc(F)ccc3Cl)CC2)c(=O)n(C)c1=O [Example 30, 6-[4-(2-chloro-5-fluoro-phenoxy)-piperidin-1-yl]-2,4-dimethyl-2H-[1,2,4]triazine-3,5-dione]"
102,73,–,"Cc1ccccc1OC1CCN(c2nn(C)c(=O)n(C)c2=O)CC1 [Example 31, 2,4-dimethyl-6-(4-o-tolyloxy-piperidin-1-yl)-2H-[1,2,4]triazine-3,5-dione]"
70,48,–,"Cn1nc(N2CCC(Oc3ccc(F)cc3)CC2)c(=O)n(C)c1=O [Example 33, 6-[4-(4-fluoro-phenoxy)-piperidin-1-yl]-2,4-dimethyl-2H-[1,2,4]triazine-3,5-dione]"
92,65,–,"Cn1nc(N2CCN(Cc3ccccc3C(F)(F)F)CC2)c(=O)n(C)c1=O [Example 55, 2,4-dimethyl-6-[4-(2-trifluoromethyl-benzyl)-piperazin-1-yl]-2H-[1,2,4]triazine-3,5-dione]"
95,62,–,"CCCCCCCn1c(=O)[nH]nc(N2CCC(Oc3ccccc3Cl)CC2)c1=O [Example 76, 6-[4-(2-chloro-phenoxy)-piperidin-1-yl]-4-heptyl-2H-[1,2,4]triazine-3,5-dione]"
106,54,–,"Cc1ccccc1-n1nc(N2CCC(Oc3ccccc3C(F)(F)F)CC2)c(=O)n(C)c1=O [Example 79, 4-methyl-2-o-tolyl-6-[4-(2-trifluoromethyl-phenoxy)-piperidin-1-yl]-2H-[1,2,4]triazine-3,5-dione]"
111,87,–,"Cn1c(=O)c(N2CCC(Oc3ccccc3C(F)(F)F)CC2)nn(-c2ccc(F)cc2)c1=O [Example 80, 2-(4-fluoro-phenyl)-4-methyl-6-[4-(2-trifluoromethyl-phenoxy)-piperidin-1-yl]-2H-[1,2,4]triazine-3,5-dione]"

# Source: US8618287B2, “Derivatives of triazines and uracils, their preparation and their application in human therapeutics” (Pierre Fabre Medicament, priority 2008, dated 2013)
